Read-outs that look alike come from different tables or passages of the source.
Assays:
[1] = Rat pharmacokinetic study: plasma and brain levels after single oral dose; assay type: in vivo; settings: male, Sprague-Dawley; for concentration at 105 min: po, 10 mg/kg, mean ± SEM
Method: A blood sample was obtained and the plasma was separated (10,000 G, 60 s, 4 °C) and frozen to -80 °C. The vasculature was immediately cleared with physiological saline, and a section through the right cerebral hemisphere was obtained and flash frozen to -80 °C.

[2] = test system: 6-OHDA unilateral medial forebrain bundle lesioned rat; assay: BrdU immunoreactivity (neurogenesis marker) in SVZ and striatum of 6-OHDA lesioned rats; assay type: in vivo; settings: delayed treatment 30 mg/kg daily p.o.; BrdU 50 mg/kg i.p. day 8 to 20; day 21
Method: Gliptin treatment was initiated either prior to or after 6-OHDA lesioning (early and delayed treatment, respectively) as follows. […]. An estimated dose for a 250-g rat under this treatment was 10 mg/kg/day. […]. An estimated, clinically relevant, dose for a 250 g rat under this treatment was thus 30 mg/kg/day. Specifically for drug admixture into diet, drug was solubilized in 100% ETOH that was then added to the 16.2 g of food chow. Thereafter, the ETOH was evaporated off. […] Animals were weighed twice weekly and the amount of drug added to the chow was modified accordingly to maintain the daily required dose. […]. […] Specifically, the 10 mg/kg oral daily drug dose in our rat studies is equivalent to the routine human daily oral dose (100 mg in a 65 kg human) of these gliptins used in T2DM, and the 30 mg/kg rat dose is equivalent to a threefold higher dose that is well-tolerated in humans.
Following the exact same protocol described in Yin et al., 2012 [34] and Harvey et al. 2004 [36], anesthetized rats were subjected to a 6-OHDA unilateral medial forebrain bundle lesion. Briefly, 6-OHDA (2.27 µg/µL × 5 µL in 0.9% NaCl containing 0.2 mg/ml ascorbic acid) was unilaterally injected into the medial forebrain bundle (-4.4 mm AP, 1.2 mm ML relative to bregma and 8.4 mm below skull) over 4 min through a syringe pump (Micro 4, WPI, Sarasota, FL), as approved under National Health Research Institutes, Taiwan, Protocol # 102,068-A; 102,102-A. Following this procedure, all animals were monitored daily for adverse signs of health for 1 week (in line with the approved protocols).
BrdU (Sigma-Aldrich, St. Louis, MO) was injected parenterally (i.p.) from day 8 to day 20 after 6-OHDA lesioning at the dose of 50 mg/kg/day as a marker of neurogenesis. Animals were euthanized for immunostaining on day 21.
BrdU and TH localization was determined by immunohistochemistry. Serial sections of the entire brain were cut at 30 μm thickness by cryostat. One series from every sixth section was stained for TH. To control for staining variability, specimens from all experimental groups were included in every batch and reacted together in a net well tray under the same conditions. Sections were rinsed in 0.1 M phosphate buffer (PB), blocked with 4% bovine serum albumin (BSA) and 0.3% Triton x-100 in 0.1 M PB. […]
TH immunoreactivity and BrdU cell number in striatum were averaged from 3 brain sections with visible anterior commissure in each animal. TH immunoreactivity in SNc was measured every 6th Sect. […] Nigral volume was analyzed using Cavalieri's method.

[3] = test system: 6-OHDA unilateral medial forebrain bundle lesioned rat; assay: Dopamine measurements by HPLC in striatum and SNc of 6-OHDA lesioned rats; assay type: in vivo; settings: delayed treatment, low dose 10 mg/kg daily p.o. from day 7
Method: Gliptin treatment was initiated either prior to or after 6-OHDA lesioning (early and delayed treatment, respectively) as follows. […] An estimated dose for a 250-g rat under this treatment was 10 mg/kg/day. […] An estimated, clinically relevant, dose for a 250 g rat under this treatment was thus 30 mg/kg/day. Specifically for drug admixture into diet, drug was solubilized in 100% ETOH that was then added to the 16.2 g of food chow. Thereafter, the ETOH was evaporated off. […] Animals were weighed twice weekly and the amount of drug added to the chow was modified accordingly to maintain the daily required dose.
Brain samples were collected at 45 days after 6-OHDA lesioning. Striatal and SNc tissues were weighed and stored at − 80 °C until extraction. The tissues obtained from each animal were homogenized in 0.1 M perchloric acid and centrifuged at 13,000 g for 15 min. DA levels were measured by HPLC with electrochemical detection [47]. The analytical column was a Symmetry C18 3.5 µm (4.6 × 150.0 mm) from Waters (Milford, MA). The mobile phase consisted of 0.01 M sodium dihydrogen phosphate, 0.01 M citric acid, 2 mM sodium EDTA, 1 mM sodium octylsulfate, 10% methanol, pH 3.5 and was used at flow rate of 0.9 ml/min and a temperature of 25 °C. […] DA content was calculated as nmole/g of tissue weight.

GLP-1 and GIP = assay: Active GLP-1 and GIP measurement in rat plasma and CSF (ELISA); assay type: in vivo; settings: 30 mg/kg daily p.o. day 7 to 45, day 45
Method: Plasma was obtained from whole blood samples at the time of euthanasia (centrifugation 10,000xG 60 s at 4 °C), and CSF was obtained from the cisterna magna. Samples were evaluated by ELISA using kits from IBL (Immuno-Biological Laboratories, Inc.) or from Millipore, following their protocols.

P-glycoprotein = settings: at the level of the kidney; cited from earlier work
rat rotenone model of PD = settings: cited from earlier work
high-fat-fed mice = settings: cited from earlier work

Row | concentration at 105 min ([1]; brain, rat brain, 105 min after oral 10 mg/kg, read-out: BrFree (brain free concentration)) [nM] | concentration at 105 min ([1]; brain, rat brain, 105 min after oral 10 mg/kg, read-out: BrTotal (brain total concentration)) [nM] | Kp at 105 min ([1]; brain/plasma, 105 min after oral 10 mg/kg, read-out: Br/Pl ratio (Total)) | concentration at 105 min ([1]; plasma, rat plasma, 105 min (predicted Cmax) after oral 10 mg/kg, n = 5 to 6, read-out: PlTotal (plasma total concentration)) [nM] | concentration at 105 min ([1]; plasma, rat plasma, 105 min after oral 10 mg/kg, read-out: PlFree (plasma free concentration)) [nM] | SMILES | BrdU labeling in the SVZ vs vehicle [2] | BrdU labeling in the lesioned striatum vs vehicle [2] | DA levels in SNc or striatum vs vehicle ([3]; 10 mg/kg) | DA levels in SNc or striatum vs vehicle ([3]; listed as PF‐00734,200, 10 mg/kg) | CSF GIP level vs vehicle (GLP-1 and GIP; CSF) | CSF GLP-1 level vs vehicle (GLP-1 and GIP; CSF) | Plasma GIP level vs vehicle (GLP-1 and GIP) | Plasma GLP-1 level vs vehicle (GLP-1 and GIP) | Substrate for the multi-drug resistance transporter P-glycoprotein (P-glycoprotein) | Effects in rat rotenone model of PD (rat rotenone model of PD) | Hippocampal neurogenesis (high-fat-fed mice)
1 | 195 ± 34.9 | 574 ± 103 | 0.62 | 922 ± 206 | 830 ± 185 | O=C([C@@H]1C[C@H](N2CCN(c3ncccn3)CC2)CN1)N1CCC(F)(F)C1 [PF-00734,200, Gosogliptin] | did not alter | significantly increased | not significantly altered | did not alter DA level | elevated | elevated | elevated | elevated |  |  | 
2 |  |  |  |  |  | N[C@@H](CC(=O)N1CCn2c(nnc2C(F)(F)F)C1)Cc1cc(F)c(F)cc1F [Sitagliptin] | did not alter | significantly increased |  |  | elevated |  | elevated | elevated | substrate | mitigated motor deficits, striatal DA loss, SNc dopaminergic neuronal degeneration and neuroinflammation | augmented hippocampal neurogenesis
